Measured values taken from patent US8796253B2, “Heteroaryl substituted pyrazole derivatives useful for treating hyper-proliferative disorders and diseases associated with angiogenesis” (Bayer Intellectual Property GmbH, priority 2007, dated 2014).
pIC50: −log10 of the molar value.

Tested on: HCT-116 cells stably transfected with a Luciferase reporter gene under the control of HIF-responsive element
Assay: HIF-Luciferase Assay
Type: cell-based
Conditions: Homo sapiens, HCT-116, HIF-Luciferase Assay, HCT-116 reporter cells, overnight at 1% oxygen; group >10, unit inferred
Description: HCT-116 cells stably transfected with a Luciferase reporter gene under the control of HIF-responsive element were plated in white 96- or 384-well plates at 30,000 or 5,000 cells/well, respectively, in 50 μL/well media (RPMI with 10% fetal bovine serum and 100 μg/mL Hygromycin). Cells were incubated overnight at 37° C. in a humidified incubator containing 5% CO2 under normal oxygen. The next day test compounds were added to the wells at various concentrations (0-10 μM, 0.1% final DMSO concentration) and placed in a hypoxic chamber overnight at 1% oxygen. Following the exposure to hypoxic conditions, 50 μL/well of Bright Glo reagent (Promega, Wisconsin, USA) was added to the wells and luminescence was measured after 5 min. Cells incubated under normal oxygen levels were used as background control. […] Compounds that have IC50 values between 1 μM and 10 μM include those of Examples 8, 16, 38, 39, 40, 41, 42, 43, 47, 48, 53, 54, 56, 57, 66, 69, and 72.

Row | Compound | pIC50
1 | Cc1ccc(Cn2nc(-c3nc4cc(C(C)(C)c5ccccc5)ccc4o3)cc2C)cc1 [Example 32, 2-[5-methyl-1-(4-methylbenzyl)-1H-pyrazol-3-yl]-5-(1-methyl-1-phenylethyl)-1,3-benzoxazole] | < 5.00
2 | Cc1ccc(Cn2nc(-c3nc4ccc(N5CCN(C)CC5)cc4[nH]3)cc2C)cc1 [Example 50, 2-[5-methyl-1-(4-methylbenzyl)-1H-pyrazol-3-yl]-6-(4-methylpiperazin-1-yl)-1H-benzimidazole] | < 5.00
3 | Cc1ccc(Cn2nc(-c3nc4cc(Cc5ccccc5)ccc4o3)cc2C)cc1 [Example 33, 5-benzyl-2-[5-methyl-1-(4-methylbenzyl)-1H-pyrazol-3-yl]-1,3-benzoxazole] | < 5.00
4 | Cc1ccc(Cn2nc(C3=NC(C(C)C)CO3)cc2C)cc1 (stereo not shown) [Example 71, 4-isopropyl-2-[5-methyl-1-(4-methylbenzyl)-1H-pyrazol-3-yl]-4,5-dihydro-1,3-oxazole] | < 5.00
5 | Cc1ccc(Cn2nc(C3=NC(c4ccc(C(C)(C)C)cc4)CO3)cc2C)cc1 (stereo not shown) [Example 70, 4-(4-tert-butylphenyl)-2-[5-methyl-1-(4-methylbenzyl)-1H-pyrazol-3-yl]-4,5-dihydro-1,3-oxazole] | < 5.00

Same assay, conditions: Homo sapiens, HCT-116, HIF-Luciferase Assay, HCT-116 reporter cells, overnight at 1% oxygen; individual values

Row | Compound | pIC50
6 | Cc1ccc(Cn2nc(-c3nc(-c4ccc(C(C)(C)C)cc4)no3)cc2C)cc1 [Example 4, 3-(4-tert-butylphenyl)-5-[5-methyl-1-(4-methylbenzyl)-1H-pyrazol-3-yl]-1,2,4-oxadiazole] | 8.30
7 | Cc1ccc(Cn2nc(-c3nc(-c4ccc(C5CCCCC5)cc4)c[nH]3)cc2C)cc1 [Example 68, 3-[4-(4-cyclohexylphenyl)-1H-imidazol-2-yl]-5-methyl-1-(4-methylbenzyl)-1H-pyrazole] | 8.22
8 | Cc1ccc(Cn2nc(-c3nc4ccc(-c5ccc(F)cc5)cc4[nH]3)cc2C)cc1 [Example 59, 6-(4-Fluorophenyl)-2-[5-methyl-1-(4-methylbenzyl)-1H-pyrazol-3-yl]-1H-benzimidazole] | 8.30
9 | Cc1cc(-c2nc(-c3ccc(OC(F)(F)F)cc3)no2)nn1Cc1ccc(C#N)cc1 [Example 121, 4-[(5-methyl-3-3-[4-(trifluoromethoxy)phenyl]-1,2,4-oxadiazol-5-yl-1H-pyrazol-1-yl)methyl]benzonitrile] | 7.52
10 | Cc1ccc(Cn2nc(-c3nc(-c4ccc(OCC(F)(F)F)cc4)no3)cc2C)cc1 [Example 18, 5-[5-Methyl-1-(4-methylbenzyl)-1H-pyrazol-3-yl]-3-[4-(2,2,2-trifluoroethoxy)phenyl]-1,2,4-oxadiazole] | 7.52
11 | Cc1cc(-c2nc(-c3ccc(OC(F)(F)F)cc3)no2)nn1Cc1ccc(Cl)cc1 [Example 120, 5-[1-(4-Chlorobenzyl)-5-methyl-1H-pyrazol-3-yl]-3-[4-(trifluoromethoxy)phenyl]-1,2,4-oxadiazole] | 7.70
12 | Cc1ccc(Cn2nc(-c3nc(-c4ccc(C(C)(C)F)cc4)no3)cc2C)cc1 [Example 103, 3-[4-(1-fluoro-1-methylethyl)phenyl]-5-[5-methyl-1-(4-methylbenzyl)-1H-pyrazol-3-yl]-1,2,4-oxadiazole] | 8.00

Same assay, conditions: Homo sapiens, HCT-116, HIF-Luciferase Assay, HCT-116 reporter cells, overnight at 1% oxygen; potency groups

Row | Compound | pIC50
13 | Cc1ccc(Cn2nc(-c3nc(-c4ccccc4)no3)cc2C)cc1 [Example 9, 5-[5-methyl-1-(4-methylbenzyl)-1H-pyrazol-3-yl]-3-phenyl-1,2,4-oxadiazole] | ≥ 6.00
14 | Cc1ccc(Cn2nc(-c3nc(-c4ccc(F)cc4)no3)cc2C)cc1 [Example 10, 3-(4-fluorophenyl)-5-[5-methyl-1-(4-methylbenzyl)-1H-pyrazol-3-yl]-1,2,4-oxadiazole] | ≥ 6.00
15 | Cc1ccc(Cn2nc(-c3nc(-c4ccc(OC(C)C)cc4)no3)cc2C)cc1 [Example 20, 3-(4-Isopropoxyphenyl)-5-[5-methyl-1-(4-methylbenzyl)-1H-pyrazol-3-yl]-1,2,4-oxadiazole] | ≥ 6.00
16 | Cc1ccc(Cn2nc(-c3nc(-c4ccc(C(C)(C)C)cc4)no3)cc2C)cc1 [Example 4, 3-(4-tert-butylphenyl)-5-[5-methyl-1-(4-methylbenzyl)-1H-pyrazol-3-yl]-1,2,4-oxadiazole] | ≥ 6.00
17 | Cc1ccc(Cn2nc(-c3nc4ccc(-c5ccccc5Cl)cc4[nH]3)cc2C)cc1 [Example 62, 6-(2-chlorophenyl)-2-[5-methyl-1-(4-methylbenzyl)-1H-pyrazol-3-yl]-1H-benzimidazole] | ≥ 6.00
18 | Cc1ccc(Cn2nc(-c3nc(-c4ccc(C5CCCCC5)cc4)c[nH]3)cc2C)cc1 [Example 68, 3-[4-(4-cyclohexylphenyl)-1H-imidazol-2-yl]-5-methyl-1-(4-methylbenzyl)-1H-pyrazole] | ≥ 6.00
19 | Cc1ccc(Cn2nc(-c3nc4cc(-c5cccc(Cl)c5)ccc4o3)cc2C)cc1 [Example 36, 5-(3-chlorophenyl)-2-[5-methyl-1-(4-methylbenzyl)-1H-pyrazol-3-yl]-1,3-benzoxazole] | ≥ 6.00
20 | Cc1ccc(Cn2nc(-c3nc(-c4ccc(C(F)(F)F)cc4)no3)cc2C)cc1 [Example 7, 5-[5-methyl-1-(4-methylbenzyl)-1H-pyrazol-3-yl]-3-[4-(trifluoromethyl)phenyl]-1,2,4-oxadiazole] | ≥ 6.00
21 | Cc1ccc(Cn2nc(-c3nc(-c4ccc(N5CCCC(C)C5)cc4)no3)cc2C)cc1 (stereo not shown) [Example 6, 3-methyl-1-(4-{5-[5-methyl-1-(4-methylbenzyl)-1H-pyrazol-3-yl]-1,2,4-oxadiazol-3-yl}phenyl)piperidine] | ≥ 6.00
22 | Cc1ccc(Cn2nc(-c3nc(-c4ccncc4)no3)cc2C)cc1 [Example 14, 4-{5-[5-Methyl-1-(4-methylbenzyl)-1H-pyrazol-3-yl]-1,2,4-oxadiazol-3-yl}pyridine] | ≥ 6.00
23 | Cc1ccc(Cn2nc(C3=NC(Cc4ccc(Cl)cc4)CO3)cc2C)cc1 (stereo not shown) [Example 72, 4-(4-chlorobenzyl)-2-[5-methyl-1-(4-methylbenzyl)-1H-pyrazol-3-yl]-4,5-dihydro-1,3-oxazole] | 5.00 to 6.00
24 | Cc1ccc(Cn2nc(-c3nc(-c4ccc(OCc5ccc(Cl)cc5)cc4)no3)cc2C)cc1 [Example 2, 3-{4-[(4-chlorobenzyl)oxy]phenyl}-5-[5-methyl-1-(4-methylbenzyl)-1H-pyrazol-3-yl]-1,2,4-oxadiazole] | ≥ 6.00
25 | Cc1ccc(Cn2nc(-c3nc4cc(-c5ccccc5)ccc4o3)cc2C)cc1 [Example 29, 2-[5-Methyl-1-(4-methylbenzyl)-1H-pyrazol-3-yl]-5-phenyl-1,3-benzoxazole] | ≥ 6.00
26 | Cc1ccc(Cn2nc(-c3nc(-c4ccc(N5CCCCC5)cc4)no3)cc2C)cc1 [Example 12, 1-(4-{5-[5-methyl-1-(4-methylbenzyl)-1H-pyrazol-3-yl]-1,2,4-oxadiazol-3-yl}phenyl)piperidine] | ≥ 6.00
27 | Cc1ccc(Cn2nc(-c3nc4cc(-c5cccc(F)c5)ccc4o3)cc2C)cc1 [Example 34, 5-(3-fluorophenyl)-2-[5-methyl-1-(4-methylbenzyl)-1H-pyrazol-3-yl]-1,3-benzoxazole] | ≥ 6.00
28 | Cc1ccc(Cn2nc(-c3nc(-c4ccc(C5CCCCC5)cc4)no3)cc2C)cc1 [Example 11, 3-(4-cyclohexylphenyl)-5-[5-methyl-1-(4-methylbenzyl)-1H-pyrazol-3-yl]-1,2,4-oxadiazole] | ≥ 6.00
29 | Cc1ccc(Cn2nc(-c3nc(-c4cccnc4)no3)cc2C)cc1 [Example 16, 3-{5-[5-methyl-1-(4-methylbenzyl)-1H-pyrazol-3-yl]-1,2,4-oxadiazol-3-yl}pyridine] | 5.00 to 6.00
30 | Cc1ccc(Cn2nc(-c3nc4ccc(-c5cccc(F)c5)cc4[nH]3)cc2C)cc1 [Example 61, 6-(3-fluorophenyl)-2-[5-methyl-1-(4-methylbenzyl)-1H-pyrazol-3-yl]-1H-benzimidazole] | ≥ 6.00
31 | Cc1ccc(Cn2nc(-c3nc4ccc(-c5ccc(F)cc5)cc4[nH]3)cc2C)cc1 [Example 59, 6-(4-Fluorophenyl)-2-[5-methyl-1-(4-methylbenzyl)-1H-pyrazol-3-yl]-1H-benzimidazole] | ≥ 6.00
32 | COCC(=O)Nc1ccc(-c2noc(-c3cc(C)n(Cc4ccc(C)cc4)n3)n2)cc1 [Example 27, 2-methoxy-N-(4-{5-[5-methyl-1-(4-methylbenzyl)-1H-pyrazol-3-yl]-1,2,4-oxadiazol-3-yl}phenyl)acetamide] | ≥ 6.00
33 | Cc1ccc(Cn2nc(-c3nc4ccc(C(F)(F)F)cc4[nH]3)cc2C)cc1 [Example 44, 2-[5-methyl-1-(4-methylbenzyl)-1H-pyrazol-3-yl]-6-(trifluoromethyl)-1H-benzimidazole] | ≥ 6.00
34 | Cc1ccc(C(C)n2nc(-c3nc(-c4ccc(Br)cc4)no3)cc2C)cc1 (stereo not shown) [Example 8, 3-(4-bromophenyl)-5-{5-methyl-1-[1-(4-methylphenyl)ethyl]-1H-pyrazol-3-yl}-1,2,4-oxadiazole] | 5.00 to 6.00
35 | Cc1ccc(Cn2nc(-c3nc4ccccc4o3)cc2C)cc1 [Example 31, 2-[5-methyl-1-(4-methylbenzyl)-1H-pyrazol-3-yl]-1,3-benzoxazole] | ≥ 6.00
36 | Cc1ccc(Cn2nc(-c3nc4cc5c(cc4[nH]3)OC(F)(F)O5)cc2C)cc1 [Example 55, 2,2-difluoro-6-[5-methyl-1-(4-methylbenzyl)-1H-pyrazol-3-yl]-5H-[1,3]dioxolo[4,5-f]benzimidazole] | ≥ 6.00
37 | Cc1ccc(Cn2nc(-c3nc4ccc(N5CCOCC5)cc4[nH]3)cc2C)cc1 [Example 53, 2-[5-methyl-1-(4-methylbenzyl)-1H-pyrazol-3-yl]-6-morpholin-4-yl-1H-benzimidazole] | 5.00 to 6.00
38 | Cc1ccc(Cn2nc(-c3nc4ccc(C(C)(C)C)cc4[nH]3)cc2C)cc1 [Example 43, 6-tert-butyl-2-[5-methyl-1-(4-methylbenzyl)-1H-pyrazol-3-yl]-1H-benzimidazole] | 5.00 to 6.00
39 | Cc1ccc(Cn2nc(-c3nc4cc(-c5ccccc5F)ccc4o3)cc2C)cc1 [Example 35, 5-(2-fluorophenyl)-2-[5-methyl-1-(4-methylbenzyl)-1H-pyrazol-3-yl]-1,3-benzoxazole] | ≥ 6.00
40 | Cc1ccc(Cn2nc(-c3nc(-c4ccc(OCC(F)(F)F)cc4)no3)cc2C)cc1 [Example 18, 5-[5-Methyl-1-(4-methylbenzyl)-1H-pyrazol-3-yl]-3-[4-(2,2,2-trifluoroethoxy)phenyl]-1,2,4-oxadiazole] | ≥ 6.00
